Source: patent US10189795B2, “Aryl amine substituted quinoxaline used as anticancer drugs” (priority 2014, dated 2019)

Assays:
NCI-1703 = experiment: cell viability of NCI-1703 cells, 1 and 10 uM of each erlotinib derivative, and IC50; assay type: cell-based; details: Homo sapiens
Method: [Worded in the source for another cell line; this cell line is reported under the same test.] (§1) Sorafenib (Nexavar), erlotinib (Tarceva) and Paclitaxel were kindly provided by Bayer Pharmaceuticals (Pittsburgh, Pa., USA) and Roche Pharmaceuticals (Basel, Switzerland) respectively. Okadaic acid (OA) was purchased from Cayman Chemical (Ann Arbor, Mich., USA) and z-VAD-fmk was obtained from Sigma (St. Louis, Mo., USA). For in vitro studies, drugs at various concentrations were dissolved in dimethyl sulfoxide (DMSO), and added to cells in Dulbecco's modified Eagle's medium (DMEM) or Roswell Park Memorial Institute (RPMI) containing 5% fetal bovine serum (FBS).
(§2) The Sk-Hep1, PLC/PRF/5 (PLC) and Hep3B cell lines were obtained from American Type Culture Collection (ATCC; Manassas, Va., USA). The Huh-7 HCC cell line was obtained from the Health Science Research Resources Bank (HSRRB; Osaka, Japan; JCRB0403). Cells were maintained in DMEM supplemented with 10% FBS in a 37° C. humidified incubator in an atmosphere of 5% CO^2 in air.

H358 = experiment: cell viability of H358 cells, 1 and 10 uM; assay type: cell-based; details: Homo sapiens, NCI-H358
Method: [Worded in the source for another cell line; this cell line is reported under the same test.] as §1, §2

NCI-H226 = experiment: cell viability of NCI-H226 cells, 1 and 10 uM; assay type: cell-based; details: Homo sapiens
Method: [Worded in the source for another cell line; this cell line is reported under the same test.] as §1, §2

PP2A = PP2A phosphatase activity (malachite green-phosphate assay in cell lysate); assay type: cell-based
Method: The protein phosphatase activity in each cell lysate was determined by measuring the generation of free phosphate from threonine phosphopeptide using the malachite green-phosphate complex assay as described by the manufacturer (Upstate Biotechnology, Lake Placid, N.Y., USA). In brief, HCC cell lysates were first prepared in a low-detergent lysis buffer. […] After incubation for 10 min at 30° C., the malachite dye was added and free phosphate was measured by optical density at 650 nm. In order to avoid variation resulting from differences in the amount of immunoprecipitation protein between samples, the phosphatase activities were normalized to the amounts of PP2A immunoprecipitated, which were detected and quantified by immunoblot analysis for each treatment group.

A549 = experiment: cell viability of A549 cells, 1 and 10 uM; assay type: cell-based; details: Homo sapiens
Method: [Worded in the source for another cell line; this cell line is reported under the same test.] as §1, §2

SW900 = experiment: cell viability of SW900 cells, 1 and 10 uM; assay type: cell-based; details: Homo sapiens
Method: [Worded in the source for another cell line; this cell line is reported under the same test.] as §1, §2

H520 = experiment: cell viability of H520 cells, 1 and 10 uM; assay type: cell-based; details: Homo sapiens, NCI-H520
Method: [Worded in the source for another cell line; this cell line is reported under the same test.] as §1, §2

SET-PP2Ac binding = biological target: T1, SET-PP2Ac binding (Homo sapiens, UniProt Q01105); experiment: disruption of SET-PP2Ac binding (surface plasmon resonance, co-IP)
T1 construct: His; purchased Genway (SET-His); Abnova (PP2Ac-GST) GWB-ATG319; H00005515
T1 sequence (Q01105 1-277 isoform Q01105-2): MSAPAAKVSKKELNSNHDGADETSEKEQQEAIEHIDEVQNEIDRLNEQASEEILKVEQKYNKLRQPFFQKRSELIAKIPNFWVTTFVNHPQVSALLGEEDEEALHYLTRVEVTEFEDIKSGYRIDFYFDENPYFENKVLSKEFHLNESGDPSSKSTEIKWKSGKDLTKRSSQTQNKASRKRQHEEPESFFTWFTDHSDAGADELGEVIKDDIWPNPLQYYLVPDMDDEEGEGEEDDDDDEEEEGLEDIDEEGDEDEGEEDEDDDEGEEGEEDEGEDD
Method: Binding affinities of full-length SET and truncated SET to PP2Ac and the effect of the erlotinib derivatives of the present invention on disrupting SET and PP2Ac were analyzed. PP2Ac-GST recombinant protein was bound in the CMS chip pre-coated with GST-capture antibodies. Sensorgrams were generated by injecting several concentrations of the erlotinib derivatives of the present invention mixed with fixed-concentration of SET recombinant protein, or the mixture of different concentration of truncated SET proteins in a fixed-dose EMQA. PP2Ac-GST recombinant protein used for this experiment was purchased from Abnova (H00005515) and SET-His recombinant protein was obtained from Genway (GWB-ATG319).
EMQA reactivates PP2A by disrupting the binding of SET-PP2Ac. To validate the role of SET, the present invention generated Hep3B cells with ectopic expression of myc-tagged SET by transient transfection. […] With a fixed amount of PP2Ac coated on the CM chip, the present invention tested the effects of a fixed-dose of EMQA on interfering different proportions of full-length and truncated forms of SET proteins in SPR system. […] To validate the findings of this ex vivo system, the present invention generated cells with ectopic overexpression of these two truncated forms of Flag-tagged SET proteins by transient transfections.

H2170 = experiment: cell viability of H2170 cells, 1 and 10 uM; assay type: cell-based; details: Homo sapiens, NCI-H2170
Method: [Worded in the source for another cell line; this cell line is reported under the same test.] as §1, §2

| Compound | viability at 1 µM (NCI-1703) | viability at 10 µM (NCI-1703) | viability at 1 µM (H358) | viability at 10 µM (H358) | viability at 1 µM (NCI-H226) | viability at 10 µM (NCI-H226) | minimal concentration for PP2A activation (PP2A) | viability at 1 µM (A549) | viability at 10 µM (A549) | viability at 1 µM (SW900) | viability at 10 µM (SW900) | viability at 1 µM (H520) | viability at 10 µM (H520) | minimal concentration to disrupt SET-PP2Ac binding (SET-PP2Ac binding) | viability at 1 µM (H2170) | viability at 10 µM (H2170) | IC50 (NCI-1703; cell viability) |
| --- | --- | --- | --- | --- | --- | --- | --- | --- | --- | --- | --- | --- | --- | --- | --- | --- | --- |
| FS(F)(F)(F)(F)c1ccc(Nc2nc3ccccc3nc2Cl)cc1 [TD81, 3-chloro-N-(4-(Pentafluorothio)phenyl)quinoxalin-2-amine] | 82.7 ± 5% | 85.8 ± 0.1% | 116 ± 5.9% | 75.5 ± 3.9% | 100 ± 4.1% | 92 ± 3.8% | >200 nM | 95.6 ± 15.9% | 69.4 ± 3.4% | 86.9 ± 7.36% | 60.2 ± 11.2% | 103.4 ± 0.14% | 72.4 ± 11.3% | >200 nM | 100 ± 6.2% | 82.7 ± 2.44% | – |
| C#Cc1cccc(Nc2nc3cc([N+](=O)[O-])ccc3nc2Nc2ccc(OC)cc2)c1 [TD605, N^3-(3-ethynylphenyl)-N^2-(4-methoxyphenyl)-6-nitroquinoxaline-2,3-diamine] | 20.8 ± 0.4% | 13.8 ± 0.2% | 101 ± 13.6% | 113 ± 12% | 53.1 ± 1.9% | 5.5 ± 0.2% | 100 to 200 nM | 83.7 ± 7% | 113 ± 18.3% | 87.1 ± 27.2% | 2.21 ± 1.34% | 89.1 ± 6.09% | 0.78 ± 0.39% | 100 to 200 nM | 108 ± 3.88% | 5.53 ± 0.81% | 500 nM |
| COc1cccc(Nc2nc3ccc([N+](=O)[O-])cc3nc2Nc2cccc(OC)c2)c1 [TD608, N^2,N^3-bis(3-methoxyphenyl)-6-nitroquinoxaline-2,3-diamine] | 52.8 ± 4.5% | 12.7 ± 0.9% | 110 ± 44% | 31.7 ± 33.3% | 104 ± 2.5% | 40.6 ± 2.4% | >200 nM | 71.5 ± 35% | 10.3 ± 3.5% | 114 ± 2.6% | 39.8 ± 51.2% | 97 ± 19.8% | 1.77 ± 1.7% | >200 nM | 113 ± 8.63% | 4.71 ± 0.24% | – |
| COc1ccc(Nc2nc3ccc([N+](=O)[O-])cc3nc2Nc2cccc(O)c2)cc1 [TD612, 3-(2-(4-methoxyphenylamino)-6-nitroquinoxalin-3-ylamino)phenol] | 82.7 ± 2.4% | 13.4 ± 0.7% | 97.3 ± 13.4% | 12.8 ± 0.4% | 69.4 ± 6.8% | 38 ± 1.4% | <100 nM | 90.6 ± 18.2% | 10.3 ± 1.2% | 105 ± 3.4% | 64.7 ± 4% | 107 ± 2.62% | 12.9 ± 1.2% | – | 107 ± 4.84% | 22.5 ± 11.8% | – |
| FC(F)(F)c1cc(Nc2nc3ccccc3nc2Nc2ccc(Cl)c(C(F)(F)F)c2)ccc1Cl [TD63, N^2,N^3-bis(4-chloro-3-(trifluoromethyl)phenyl)quinoxaline-2,3-diamine] | 54.5 ± 5.5% | 28.8 ± 7.9% | 66.8 ± 8.5% | 16.2 ± 1.3% | 99.9 ± 4.3% | 19.6 ± 0.4% | 100 to 200 nM | 79.2 ± 7.8% | 21.9 ± 2.2% | 54.8 ± 3.35% | 3.28 ± 4.63% | 28.5 ± 0.58% | 0.45 ± 0.14% | <100 nM | 78.5 ± 1.28% | 9.13 ± 0.63% | – |
